Where two headings read alike, the source gives them in different places.
Legend:
[1] = system: adult fleas; assay: Flea feeding system: viability and fecundity of fleas fed blood containing protease inhibitors; assay type: in vivo; conditions: for Adult Survival Female / Adult Survival Male / Adult Survival Total / Fecundity Days 1-7: percent of corresponding control group
Description: This Example evaluates the effect of a number of protease inhibitors on flea viability and fecundity in a flea feeding system as described by Wade et al. ibid.
Protease inhibitor compounds were tested in groups of 3 to 6 including appropriate control groups. Inhibitors were not tested in groups of common inhibition types. Rather, they were tested in groups based on the diluent needed to dissolve them. (AEBSF, aprotinin, bestatin, leupeptin, phosphoramidon, soybean trypsin inhibitor and soybean trypsin/chymotrypsin inhibitor were dissolved in water; E-64 and pepstatin were dissolved in ethanol). This reduced the number of control (diluent only) groups needed within a particular assay. Inhibitor concentrations were chosen such that the lower concentration used was within the range recommended by the supplier for that inhibitor. The higher concentration was typically 10 times above the lower concentration and was used to look for dose response.
The general protocol for all of the assays was as follows: Approximately 2000 newly emerged adult fleas were placed in feeding chambers to feed on normal blood for about 24 to 48 hr. The fleas were prefed for two reasons: The first was to be certain that only fleas that would feed in the feeding system were used in the comparative study.
The prefed fleas were placed in "minifeeder" feeding chambers at a ratio of about 80 female fleas to about 20 male fleas for a total of about 100 fleas per chamber. Actual total number of fleas per chamber varied from about 90 to 125 fleas. […] Three chambers were prepared for each experimental and control group. A fresh blood meal containing the appropriate inhibitor in 3 ml total volume was placed on each chamber daily through the 7 day extent of an assay.
On days 3, 5, and 7 of the assay, surviving adult fleas were transferred to clean chambers. The contents of the original chambers were dissolved in about 40 ml of PBS (phosphate-buffered saline) in a 50 ml Falcon tube. The contents of a given tube were then filtered through a preweighed #1 Whatman filter disk inserted into a vacuum filter. The 50 ml tube and the filter funnel were rinsed with distilled water which was then passed through the filter. Once the chamber contents had been filtered, dead adult fleas were removed from the filter paper and placed in a labelled tube so that they could be counted and sexed. The filter paper was then placed into a preweighed 12×75 polypropylene tube and dried in the SpeedVac for 2.5 hr with the heater on. After drying the filter paper was weighed. The weight of the filter paper and tube was subtracted to obtain the dry weight of the eggs and this value was converted to an estimated number of eggs using the formula y=41384.361x+162.37, where x=dry weight of eggs.
On day 7, adult fleas that had survived the study were frozen, counted and sexed. The numbers were added to the number of male and female fleas that had died during the assay to verify the number of male and female fleas in each chamber at the start of the study.
Female, male and total adult flea survival were calculated for all experimental and control groups on days 3, 5, and 7 of each assay. Additionally, the number of eggs per surviving female was calculated on days 3, 5 and 7. Female fleas found dead on a given collection date were included in the total number of egg-laying females for the days between that date and the previous collection date, providing a conservative estimate of fecundity. Fecundity values were averaged for the three collection dates to obtain an average for each group over 7 days.
Results of these studies are presented below in Table 1 and FIG. 6 through FIG. 9. All survival and fecundity values are presented below as a percent of control value.

[2] = system: flea midgut proteases; assay: Protease substrate gel analysis of flea midguts with protease inhibitors in the incubation buffers; assay type: biochemical; conditions: for effect on protease activity in protease substrate gel: unfed and fed female midguts, AEBSF 1 mM, soybean trypsin inhibitor 100 μg/ml, leupeptin 10 μg/ml in all incubation buffers
Description: Protease substrate gels (available from Novex, San Diego, Calif., as Novex Zymogels) were 10% polyacrylamide-SDS gels with 0.1% gelatin. Samples and gels were processed according to Novex instructions. Briefly, samples were diluted in SDS-PAGE sample buffer without reducing agents. Tris-glycine SDS-PAGE was carried out by standard procedures. After electrophoresis, gels were incubated in 0.25% Triton X-100 at room temperature for 30 minutes (min), then in developing buffer (50 mM (millimolar) Tris-HCl pH 7.0, 5 mM CaCl2, 0.02% Brij 35, 0.2 M (molar) NaCl) at room temperature for 30 min, and then incubated with fresh developing buffer at 37° C., usually overnight. Gels were then stained 30 min in 0.5% coomassie R-250, 40% methanol, 10% acetic acid and destained in 40% methanol, 10% acetic acid.
Three unfed female midguts and 0.75 fed female midguts were evaluated in duplicate in several protease substrate gels. Each gel was cut in half. Half was processed as described in Example 2, while the other half contained protease inhibitors in all incubation buffers. The following inhibitors were evaluated:
Mixed-sex fed flea midguts were processed as described in U.S. Pat. No. 5,356,622, ibid. Aliquots of several steps of the procedure were evaluated by loading an equivalent of 0.4 midguts per lane of a protease substrate gel as described in Example 2. Samples were from the low speed supernatant (lanes 2 and 9), sonicated midguts (lanes 3 and 10), high speed supernatant (lanes 4 and 11), combined low and high speed supernatants (FGS) (lanes 5 and 12) and the high speed pellet (lanes 6 and 13). Lanes 7 and 8 contained 50 nanograms (ng) of trypsin as a control. Duplicate lanes were evaluated. The gel was cut in half, and lanes 1-7 were processed as described in Example 2, and lanes 8-14 were processed with 100 μg/ml soybean trypsin inhibitor in all the incubation buffers.

[3] = system: flea aminopeptidase; assay: Leu-AMC cleavage by serine protease-depleted flea midgut lysate; assay type: biochemical
Description: The starting material for the isolation of a flea aminopeptidase was a flea midgut lysate preparation that had been depleted of serine proteases by passage over a benzamidine-Sepharose affinity column. To assay for aminopeptidase activity, the synthetic substrate L-Leucine-AMC (Leu-AMC), which releases a fluorescent AMC leaving group upon proteolytic cleavage, was incubated with the serine protease-depleted flea midgut preparation. Aminopeptidase activity was easily detectable with as little as 1.2 μg of lysate, both confirming the presence of an aminopeptidase (as indicated in other Examples herein) and allowing for the detection of aminopeptidase activity in fractions collected throughout subsequent fractionation and purification procedures.

[4] = system: soluble fed and unfed flea midgut preparations; assay type: biochemical; conditions: substrate BAPNA
From the text: Pellets from the centrifugation step were also collected and resuspended for analysis. Also prepared were whole flea lysates.

[5] = system: leucine aminopeptidase; assay: Leu-AMC cleavage by control protease; assay type: biochemical; conditions: 10 mM EDTA, 86 μg/ml bestatin; substrate Leu-AMC
[6] = at the concentrations tested in blood meal

## CC(=O)N[C@@H](CC(C)C)C(=O)N[C@@H](CC(C)C)C(=O)N[C@H](C=O)CCCNC(=N)N [Leupeptin]
[1]; 5 μg/ml in blood meal, not statistically significant
  reduction in adult viability: 30%
[1]; 5 μg/ml in blood meal
  Adult Survival Female: 71.0%
  Adult Survival Male: 61.4%
  Adult Survival Total: 68.4%
  Fecundity Days 1-7: 85.0%
[1]; 50 μg/ml in blood meal
  effect on adult viability: not affected
  Fecundity Days 1-7: 77.6%
[1]; [6]
  effect on fecundity: no effect on fecundity
[2]
  effect on protease activity in protease substrate gel: only inhibitors to have any effect
[3]
  inhibition of the flea protease that cleaved Leu-AMC: Only bestatin inhibited

## Aprotinin
[1]; 2 μg/ml in blood meal
  Adult Survival Female: 103.2%
  Adult Survival Male: 104.9%
  Adult Survival Total: 103.3%
  Fecundity Days 1-7: 83.2%
[1]; 20 μg/ml in blood meal
  Adult Survival Female: 100.0%
  Adult Survival Male: 101.7%
  Adult Survival Total: 99.9%
  Fecundity Days 1-7: 84.2%
[1]; [6]
  effect on adult viability: no significant effect
  effect on fecundity: no significant effect
[4]
  inhibition of ability to cleave BAPNA (proteolytic activity): ~100%

## O=S(=O)(F)Cc1ccccc1 [PMSF, phenylmethane-7-sulfonyl fluoride]
[4]
  inhibition of ability to cleave BAPNA (proteolytic activity): about 50%

## Cl.NCCc1ccc(S(=O)(=O)F)cc1 [AEBSF, 4-2-aminoethyl-benzenesulfonylfluoride-hydrochloride]
[1]; 0.3 mM in blood meal
  Fecundity Days 1-7: 82.4%
[1]; 0.5 mM in blood meal
  Fecundity Days 1-7: 95.0%
[1]; 5.0 mM in blood meal
  Adult Survival Female: 6.8%
  Adult Survival Male: 0.0%
  Adult Survival Total: 5.6%
  Fecundity Days 1-7: 1.4%
[1]; 6.0 mM in blood meal
  Adult Survival Female: 4.1%
  Adult Survival Male: 0.0%
  Adult Survival Total: 3.4%
  Fecundity Days 1-7: 17.2%
[1]; about 5 mM to about 6 mM in blood meal
  reduction in flea fecundity: more than 80%
[1]; about 5 mM to about 6 mM in blood meal, p<0.05
  adult survival: reduced to near zero
[2]
  effect on protease activity in protease substrate gel: only inhibitors to have any effect

## CC(C)C[C@H](NC(=O)[C@@H](O)[C@H](N)Cc1ccccc1)C(=O)O [Bestatin]
[1]; 1.3 mM in blood meal
  Fecundity Days 1-7: 60.4%
[1]; 1.3 mM in blood meal, significant (p<0.05)
  reduction in fecundity: 40%
[1]; 13.0 mM in blood meal
  Fecundity Days 1-7: 23.3%
[1]; 13 mM in blood meal, significant (p<0.05)
  reduction in fecundity: 77%
[1]; [6]
  effect on adult viability: no significant effect on adult viability
[5]
  inhibition of the control protease: inhibited
[3]; 1 mM pefabloc, 1 mg/ml trypsin/chymotrypsin inhibitor, 1 mg/ml trypsin inhibitor, 1 mM TPCK, 1 μg/ml pepstatin, 10 μg/ml E-64, 10 μg/ml leupeptin, 10 mM EDTA, 86 μg/ml bestatin, lysate about 1.2 μg and about 12 μg
  inhibition of the flea protease that cleaved Leu-AMC: inhibited

## O=C(O)CN(CCN(CC(=O)O)CC(=O)O)CC(=O)O [EDTA, ethylenediaminetetraacetic acid]
[5]
  inhibition of the control protease: inhibited
[3]
  inhibition of the flea protease that cleaved Leu-AMC: Only bestatin inhibited

B1: Soybean Trypsin Inhibitor: serine protease inhibitor, available from Sigma (protein, UniProt P01070 25-205, looked up)
Trypsin inhibitor A: DFVLDNEGNPLENGGTYYILSDITAFGGIRAAPTGNERCPLTVVQSRNELDKGIGTIISSPYRIRFIAEGHPLSLKFDSFAVIMLCVGIPTEWSVVEDLPEGPAVKIGENKDAMDGWFRLERVSDDEFNNYKLVFCPQQAEDDKCGDIGISIDHDDGTRRLVVSKNKPLVVQFQKLDKESL
[1]; 10 μg/ml in blood meal
  effect on fecundity: no effect
  Adult Survival Female: 80.1%
  Adult Survival Male: 101.7%
  Adult Survival Total: 83.9%
  Fecundity Days 1-7: 96.1%
[1]; 100 μg/ml in blood meal
  Adult Survival Female: 76.5%
  Adult Survival Male: 76.0%
  Adult Survival Total: 76.3%
  Fecundity Days 1-7: 79.1%
[1]; 100 μg/ml in blood meal, statistically insignificant
  reduction in fecundity: 20%
[2]; mixed-sex fed flea midgut fractions, 100 μg/ml in all incubation buffers
  inhibition of protease activity in protease substrate gel: majority of the activity was inhibited
[2]
  effect on protease activity in protease substrate gel: only inhibitors to have any effect
[3]
  inhibition of the flea protease that cleaved Leu-AMC: Only bestatin inhibited
